Residues, ends and D or L forms follow the SMILES beside them. *: point of attachment. Cbz = O=C(OCc1ccccc1)*; CH2F = FC*
Assays:
G93A-SOD1 mice = settings: other reported pharmacological treatments (literature); cited from earlier work
[1] = system: PI3K (Akt phosphorylation); assay: Western blot for PI3K activation (Akt phosphorylation) in APP-CHO cells; type: cell-based, Chinese Hamster; settings: 10 μM, 6 hr
Method: (§1) APP-CHO cells were treated with 10 μM metal-BTSC complexes for 6 hr and cell lysates examined for activation of PI3K and MAPK signal pathways.
(§2) APP-CHO cells were treated with 10 μM metal-BTSC complexes for 6 hr. Cells were extracted into Phosphosafe (Novagen) lysis buffer and proteins separated by gel-electrophoresis on 12% tris-glycine gels. Proteins were transferred to PVDF membranes and blocked with milk powder for 1 hr. Blots were then probed for total and phosphorylated forms of Akt, JNK and GSK3 using antibodies from Cell Signaling Technologies. After detection with secondary antisera (HRP-labelled), blots were analyzed for signals using chemiluminescence analysis on a GeneGnome image scanner. Activation of PI3K is shown by increased levels of phosphorylated Akt (p-Akt). Activated JNk is shown by increased p-JNK. Increased levels of deactivated GSK3 is shown by increased p-GSK3.

JNK = assay: Western blot for JNK activation (p-JNK) in APP-CHO cells; type: cell-based, Chinese Hamster; settings: 10 μM, 6 hr
Method: as §1, §2

Aβ1-40 = assay: Extracellular Aβ1-40 in conditioned medium of APP-CHO cells (ELISA); type: cell-based, Chinese Hamster; settings: 6 hr; for effect on Aβ1-40 levels at lower dose: 1 μM
Method: […] treatment regimes were used namely a control, 1 μM, 5 μM, 10 μM, 25 μM and 50 μM (FIG. 3). APP-transfected CHO cells were treated with each of the doses of [Cu(GTSM)] for 6 hr in serum-free medium and conditioned medium was then collected and assayed for Aβ1-40 peptide by routine […].
Five treatment regimes were used namely a control, 1 ? M, 5 ? M, 10 ? M, 25 ? M and 50 ? M (FIG. 4). APP-transfected CHO cells were treated with each of the doses of [Zn(BTSC)] for 6 hr in serum-free medium and conditioned medium was then collected and assayed for Aβ1-40 peptide by routine Aβ ELISA.
Generation of APP-transfected Chinese Hamster Ovary (CHO) APP-CHO cells were generated by expressing the 695-amino acid APP cDNA in the pIRESpuro2 expression vector (Clontech, Mountain View, Calif., USA). Cells were transfected using Lipofectamine 2000 and cultured in RPMI-1640 media supplemented with 1 mM glutamine and 10% fetal bovine serum (all from Invitrogen, Mount Waverley, Victoria, Australia). Transfected cells were selected and maintained using 7.5 μg/ml puromycin (Sigma-Aldrich).
Treatment of cells with Complexes. APP-CHO cells were passaged at a ratio of 1:5 and grown in 6 well plates for 3 days before experiments. Compounds were prepared as a 10 mM stock solution in DMSO and added to serum-free RPMI medium supplemented with puromycin. Medium was briefly mixed by aspiration prior to addition to cells. Control cultures were treated with vehicle (DMSO) alone. Cultures were incubated for 6 hr and conditioned media taken for measurement of […] levels by ELISA.
Double antibody capture enzyme-linked immunosorbent assay (ELISA) for Aβ detection. Aβ levels were determined in culture medium using the 384 well Aβ1-40 ELISA protocol. 384 well plates were coated with monoclonal antibody (mAb) G2-10 in carbonate-bicarbonate coating buffer (pH 9.6) for Aβ1-40 detection. The plates were left to incubate overnight at 4° C. with rocking. The plates were then washed three times with PBST at RT with rocking and the solution discarded after each wash. Then 100 μL of 0.5% (w/v) hydrolyzed casein in PBS (pH 7.4) was added to each well and left to incubate for 2 hr at 37° C. to prevent non-specific binding. The plates were then washed three times with PBST at RT with rocking. 20 ng of biotinylated mAb WO2 (epitope at Aβ5-8) was added to each well of the plates (10 μL/well at […]). 50 μL/well of Aβ1-40 standard peptide samples (MHRI, Melbourne, Australia), cell culture medium samples and the blanks were added. The plates were left to incubate overnight at 4° C. with rocking. The plates were washed nine times with PBST at RT with rocking. 25 μL streptavidin-labelled europium was added at a dilution of 1:1000. Plates were then washed ten times with PBST where the 9th and 10th wash was left on for 5 min before discarding. To develop the plates 80 μL of enhancement solution was added to each well and plates were read in a WALLAC Victor^2 plate reader with excitation (Ex) at 340 nm and emission (Em) at 613 nm. Aβ1-40 peptide standards and samples were assayed in triplicate. The values obtained from the triplicate wells were used to calculate the […] concentration (expressed as ng/mL) based on the standard curve generated on each plate and are given in Table 3.
APP-CHO cells were treated with 10 μM [Zn(ATSE)] with or without specific inhibitors of PI3K (LY294002), JNK (SP600125) or p38 (SB203580) (25 μM of each) for 6 hr and conditioned medium analyzed for levels of Aβ1-40 by routine ELISA.

EGFR = EGFR phosphorylation (tyr1068) in U87MG-EGFR cells (Western blot); type: cell-based; settings: added to CuGTSM-treated cells (25 μM CuGTSM)
Method: Transfected U87MG-EGFR cells were treated with 25 μM CuGTSM or DMSO as vehicle control for 5 hr and EGFR phosphorylation (tyr1068) determined by Western blot. Antisera to EGFRtyr1068 was routinely used as this is one of the critical tyrosine residues involved in EGFR activation and downstream signaling. It is also routinely reported in the literature on EGFR activation.

ERK, GSK3 and JNK = assay: Downstream phosphorylation of ERK, GSK3 and JNK in U87MG-EGFR cells (Western blot); type: cell-based; settings: 25 μM CuGTSM plus 10 μM PD153035; not completely ablated
Method: A study was carried out to determine if kinase pathways modulated by CuGTSM were mediated by activation of EGFR. This was done by treating U87MG-EGFR cells with 25 μM DMSO, CuGTSM, CuGTSM plus 10 μM PD153035 (EGFR inhibitor), or 10 μM PD153035 alone. The activation of ERK, GSK3 and JNK was then determined by Western blot.

[2] = system: APP-transfected CHO cells; assay: Cellular zinc uptake of Zn-BTSC complexes (ICP-MS), with or without Cu2+; type: cell-based, Chinese Hamster; settings: 6 hr
Method: It was known that copper can transmetallate [Zn(BTSC)] complexes. Therefore, if [Zn(BTSC)] complexes were administered to the culture medium in the presence of exogenous Cu^2+, we would expect [Cu(BTSC)] complexes to form. To examine this, cells were exposed to 10 μM [Zn(ATSE)] or [Zn(ATSP)] with or without 5-50 μM Cu^2+ for 6 hr.
Supernatant was discarded and cell pellets frozen at −70° C. until metal levels were determined by inductively-coupled plasma mass spectrometry (ICP-MS) at the Department of Pathology, University of Melbourne. […] [Zn(ATSM)] and [Zn(ATSE)] induced 8.2±0.25 and 9.8±0.9-fold increases in cellular Zn levels respectively when compared to untreated controls (FIG. 2).
To examine this, cells were exposed to 10 μM [Zn(ATSE)] or [Zn(ATSP)] with or without 5-50 μM Cu^2+ for 6 hr. Co-treatment of cells with Cu and the Zn-BTSC complexes reduced the level of Zn uptake compared to Zn-BTSC alone (FIG. 5).

GSK3 = assay: Western blot for GSK3 phosphorylation and expression in APP-CHO cells; type: cell-based, Chinese Hamster; settings: 10 μM, 6 hr
Method: as §1, §2

CCN1C=CN(CC)C1=C1C2=NC(=C(c3n(CC)cc[n+]3CC)C3=NC(=C(c4n(CC)cc[n+]4CC)c4ccc([n-]4)C(c4n(CC)cc[n+]4CC)=C4C=CC1=N4)C=C3)C=C2.[Cl-].[Cl-].[Cl-].[Cl-].[Cl-].[Mn+3] [AEOL 10150]
Increased Life Span (G93A-SOD1 mice): 20 days

CO/N=C(\C(=O)N[C@@H]1C(=O)N2C(C(=O)O)=C(CSc3nc(=O)c(=O)[nH]n3C)CS[C@H]12)c1csc(N)n1 [Ceftriaxone]
Increased Life Span (G93A-SOD1 mice): 10 days

CN(CC(=O)O)C(=N)N [Creatine]
Increased Life Span (G93A-SOD1 mice): 20 days

CCNC1=N[N+]2=C(C)C(C)=[N+]3N=C(NCC)[S][Cu-2]23[S]1 [CuATSE]
activation of PI3K (Akt phosphorylation) [1]: did not induce activation
activation of JNK (JNK): did not induce activation

CC(=N\NC([S-])=Nc1ccccc1)/C(C)=N/NC([S-])=Nc1ccccc1.[Cu+2] [CuATSP]
activation of PI3K (Akt phosphorylation) [1]: did not induce activation
activation of JNK (JNK): did not induce activation

CNC(=S)NN=CC=NNC(=S)NC [GTSMH2]
effect on extracellular Aβ1-40 levels (Aβ1-40; 1-50 μM, serum-free medium): very small reduction

COc1cc2ncnc(Nc3cccc(Br)c3)c2cc1OC [PD153035]
effect on CuGTSM-induced activation of EGFR (EGFR): inhibited activation
CuGTSM-induced phosphorylation of JNK, GSK3 and ERK (ERK, GSK3 and JNK): decrease

Nc1nc2ccc(OC(F)(F)F)cc2s1 [Riluzole]
Increased Life Span (G93A-SOD1 mice): 10 to 15 days

C[S+]([O-])c1ccc(-c2nc(-c3ccncc3)c(-c3ccc(F)cc3)[nH]2)cc1 (stereo not shown) [SB203580, reference compound]
effect of kinase inhibitor on the loss of Aβ by [Zn(ATSE)] (Aβ1-40; 25 μM inhibitor with 10 μM [Zn(ATSE)]): no effect

CCNC1=NN=C(C)C(C)=NN=C(NCC)[S][Zn][S]1 [[Zn(ATSE)]]
fold increase in cellular zinc levels ([2]; 10 μM complex alone): 9.7±0.7 fold
fold increase in intracellular zinc ([2]; 10 μM complex in the presence of 10 μM Cu2+): 2.9±0.3 fold
fold increases in cellular Zinc levels ([2]; APP-CHO cells, 1-50 μM, vs untreated controls): 9.8±0.9 fold
effect on Aβ1-40 levels at lower dose (Aβ1-40): greater reductions
effect on Aβ1-40 levels at lower dose (Aβ1-40; listed as Zn-ATSE): inhibited
activation of PI3K (Akt phosphorylation) [1]: induced activated
activation of JNK (JNK): induced activated
GSK3 expression (GSK3): increased
phosphorylation (de-activation) of GSK3 (GSK3): induced down-stream phosphorylation

CC1=[N+]2N=C(Nc3ccccc3)[S][Zn]23[S]C(Nc2ccccc2)=N[N+]3=C1C [[Zn(ATSP)]]
activation of PI3K (Akt phosphorylation) [1]: did not induce activation
activation of JNK (JNK): did not induce activation
GSK3 expression (GSK3): small increase

CCNC1=NN=C2CCCCC2=NN=C(NCC)[S][Zn][S]1 [[Zn(ChexTSE)]]
effect on Aβ1-40 levels at lower dose (Aβ1-40): greater reductions
effect on Aβ1-40 levels at lower dose (Aβ1-40; listed as Zn-Chex TSE): inhibited

COC(=O)C[C@H](NC(=O)[C@H](C)NC(=O)[C@@H](NC(=O)OCc1ccccc1)C(C)C)C(=O)CF [zVAD-fink] (Cbz-Val-Ala-Asp(OMe)-CH2F)
Increased Life Span (G93A-SOD1 mice): 27 days

Vitamin E
Increased Life Span (G93A-SOD1 mice): No effect
